The record followed here is publication PMC12728982, “Multichiral Half-Sandwich Ru(II) and Os(II) Anticancer Complexes Containing a Glutathione Synthesis Inhibitor” (Organometallics, 2025).

For data set [1], the system named is A549 lung carcinoma cells. Description: Antiproliferative activity, SRB assay. Format: cell-based, human. As to conditions: A549; SRB assay, 24 h treatment, 72 h recovery. As to the method: (§1) The antiproliferative activity against human A549 lung, IGROV-1 ovarian, and HeLa cervical cancer cell lines and MRC5 normal lung fibroblasts was determined by the sulforhodamine B (SRB) assay. […] IGROV-1 is known to be cisplatin-sensitive and subject to hypermutation.
(§2) 2.8 Mammalian cell culture
(§3) The human ovarian cancer cell line, IGROV-1; the human cervical cancer cell line, HeLa; the human […]; and the human non-cancerous lung fibroblast cell line, MRC5 were cultured in DMEM supplemented with 10% FBS and 100 units/mL of penicillin and 100 µg/mL of streptomycin (1x pen/strep). All cell lines were incubated at 310 K with 5% CO2 and 95% humidity for routine maintenance and during drug treatment.
(§4) 2.9 Sulforhodamine (SRB) cytotoxicity assay
(§5) Cells were seeded at 5 × 10^3 cells per well and incubated at 310 K for 48 h. Stock solutions (200 µM) of the complexes were prepared by dissolving the compound in 5% (v/v) DMSO followed by dilution with DMEM and serial dilutions with DMEM were prepared (0.1 µM-200 The cells were exposed to the drug for 24 h. The drug was then removed, and cells were allowed to recover for 72 h, in drug-free media. Cell viability was then determined by the SRB colorimetric assay. The solubilised dye absorbance was analysed on a microplate reader (Thermo Scientific Multiskan FC with Scanit software 4.1) at 470 nm. Data were normalized using Microsoft Excel, and dose-response curves fitted using Origin 2016. The IC50 values

In data set [2] the test system is IGROV-1 ovarian carcinoma cells. Description: Antiproliferative activity, SRB assay. Format: cell-based, human. Conditions: for IC50: IGROV-1, SRB assay, 24 h treatment, 72 h recovery. The protocol:
as §1, §2, §3, §4, §5

Data set [3] concerns MRC-5 normal lung fibroblasts. Description: Antiproliferative activity, SRB assay. Format: cell-based, human. As to conditions: for IC50: MRC-5, SRB assay, 24 h treatment, 72 h recovery. The protocol:
as §1, §2, §3, §4, §5

Data set [4] relates to HeLa cervical adenocarcinoma cells. Description: Antiproliferative activity, SRB assay. Format: cell-based, human. Conditions: SRB assay, 24 h treatment, 72 h recovery. As to the method: as §1, §2, §3, §4
as §5, with “µM-200 µM).” for “µM-200”

Data set [5] has as its system IGROV-1 human ovarian cancer cells. Description: Cell cycle arrest by flow cytometry (PI). Format: cell-based. As to conditions: 24 h treatment; for Progression to G2/M: IGROV-1, 50 or 100 μM. As to the method:
2 Effect of Os/Ru-LBSO and glycine complexes at 50 or 100 μM on the phases of the cell cycle of IGROV-1 human ovarian cancer cells compared with untreated (control) cells. Percentage of cells in G1 (black bar, cell growth), S (gray, DNA synthesis), G2/M, (white, growth/mitosis) as determined by flow cytometry after 24 h treatment with complexes. […] Standard deviations calculated for N = 3 *p-value <0.05 comparing to untreated sample.
as §2
The human ovarian cancer cell line, IGROV-1; the human cervical cancer cell line, HeLa; the human […]; and the human non-cancerous lung fibroblast cell line, MRC5 were cultured in DMEM supplemented with 10% FBS and 100 units/mL of penicillin and 100 µg/mL of streptomycin (1x pen/strep). All cell lines were incubated at 310 K with 5% CO2 and 95% humidity for routine maintenance and during drug treatment. […]
IGROV-1 cells (1 x 10^6 cells per well) were seeded in a 6-well plate and incubated for 24 h at 310 K. Stock solutions (200 µM) of the complexes were prepared by dissolving the compound in 5% (v/v) DMSO followed by dilution with DMEM and then diluted to desired concentrations. All complexes (50 µM and 100 µM) were added to the wells and incubated for 24 h. Cell pellets were collected using 0.25% trypsin and centrifuged (500 x g, 5 mins at 4 °C). Then washed in PBS and fixed with 100% ice-cold ethanol for 20 min on ice. The ethanol […]
was aspirated, cells washed in ice-cold PBS and then stained with 0.2 mg/mL RNase, 0.05 mg/mL propidium iodide (PI) in PBS for 25 min in the dark and on ice. Excess dye was removed, and cells were re-suspended in PBS. Samples were analysed by flow cytometry using the BD

Data set [6] concerns intracellular GSH in IGROV-1 cells. The data set is described as follows: Glutathione colorimetric detection assay. As to conditions: IGROV-1, 50 μM, 24 h. Format: cell-based, human. The protocol:
This lowering was not observed for Ru-LBSO which is not active in this cell line. Other papers have shown a similar result by including L-BSO as an additional agent, therefore showing L-BSO remains inhibitory.
Once the agarose had set , the slides were submerged in alkaline lysis solution (1.3 M NaCl, 100 mM Na2EDTA, 0.1% sodium lauryl sarcosinate, 0.26 M NaOH pH > 13) and incubated overnight at 277 K in the dark. The following day the slides were rinsed for 20 min three times in the electrophoresis solution ([…] NaOH, 2mM Na 2EDTA pH 12.3). The slides were then placed into the electrophoresis tank with fresh electrophoresis buffer, 1 -2 mm above the slides. Electrophoresis was run at 18.3 V for 25 min. Once electrophoresis was complete, slides were rinsed in distilled water and placed in 2.5 µg/mL PI for 20 min. After staining, cells were rinsed in distilled water to remove excess stain. Twenty comet images per sample were taken by confocal microscopy and analysed by OpenComet. 10
1 x 10^6 IGROV-1 cells were seeded in a 6-well plate and incubated for 24 h at 310 K. All complexes (50 µM and 100 µM) were added to the wells and incubated for 24 h. […]
Percentage of IGROV -1 cancer cells in non -apoptotic, apoptotic (early and late) or necrotic phases determined by flow cytometry after 24 h treatment with Os/Ru L -BSO and glycine complexes. […] Standard deviations calculated for N=3. […]

Data set [7] in a line: Aqueous stability / hydrolysis monitored by 1H NMR. Format: physicochemical. As to conditions: 3:7 v/v methanol-d4:D2O, 310 K, 1H NMR.
Data set [8] has as its system IGROV-1 cells. Description: Comet assay (DNA damage in single cells). Format: cell-based, human. Conditions: IGROV-1, 24 h; 100 μM for Cisplatin and Os-Gly. As to the method:
Comet assays were carried out to determine whether the complexes caused DNA damage in single cells. […] Cisplatin DNA-adducts have been shown previously to inhibit DNA migration through electrophoresis presenting as less tail movement. […] Excess dye was removed, and cells were re-suspended in PBS. Samples were analysed by flow cytometry using the BD FACSMelodyTM Cell Sorter (R653880001) and data analysis on FlowJoTM v10 Software (BD Life Sciences).9 2.11 Apoptosis IGROV-1 cells (1 x 106) were seeded in a 6-well plate and incubated for 24 h at 310 K. Stock solutions (200 μM) of the complexes were prepared by dissolving the compound in 5% (v/v) DMSO followed by dilution with DMEM and then diluted to desired concentrations. All complexes (50 μM and 100 μM) were added to the wells and incubated for 24 h. Cell pellets were collected using 0.25% trypsin and centrifuged (500 x g, 5 mins at 277 K). Cell pellets were washed with PBS and then stained with the commercial Apoptosis Detection Kit-FITC Annexin V and PI (BioLegend; San Diego, USA), as per manufacturer's instructions. Briefly, a staining solution of FITC Annexin V (1 unit/100 μL) diluted 1 in 100 and 1 μg/mL PI was added to the cells (30 min, room temperature). Excess dye was removed, and cells were re-suspended in PBS. Samples were analysed by flow cytometry using the BD FACSMelodyTM Cell Sorter (R653880001) and data analysis on FlowJoTM v10 Software (BD Life Sciences).9 2.12 Comet assay IGROV-1 cells (8×10^5 cells per well) were seeded into 6-well plates and incubated for 24 h. Test compounds (50 μM and 100 μM) were added to the wells and incubated at 3 10 K for 24 h. Cells were enzymatically detached using trypsin and cell concentration adjusted to 2×10^4 cells /mL in ice-cold PBS. 0.4 mL of cell suspension was added to 1.2 mL of 1% low melting point agarose in H 2O, then immediately added to microscope slides pre -coated in 1% agarose. […] Twenty comet images per sample were taken by confocal microscopy and analysed by OpenComet. […]

Where only a bound is given, the exact number is not on record here.

For the molecule [(p-cymene)Ru(L-BSO)Cl] [Ru-LBSO], the IC50 in data set [1] was above 200 µM; in data set [2] it was 108 ± 8 µM; in data set [3] it was 4.3 ± 0.7 µM; in data set [4] it was above 200 µM. The “Activity against IGROV-1” value in data set [2] (IGROV-1, SRB) is reported as “not active”. The “Activity toward normal lung cells” value in data set [3] (MRC-5, SRB) is “some activity”. In addition, the “G1 arrest (percentage of cells in G1)” value in data set [5] (IGROV-1, 100 μM, vs untreated) is “significantly increased”. Moreover, the “Lowering of intracellular GSH level” value in data set [6] is “not observed”. In addition, the Time to hydrolysis in data set [7] is at most 15 min.
Regarding `[NH2][Pt]([NH2])([Cl])[Cl]` [CDDP, Cisplatin, reference compound], the IC50 in data set [1] came out at 3 ± 0.2 µM; in data set [2] it was 20 ± 4.8 µM; in data set [3], 13.5 ± 0.9 µM. The “Comet tails vs untreated cells” value in data set [8] is “statistically significantly shorter comet tails”.
As to `Cc1ccc(C(C)C)cc1.O=C1C[NH][Ru]([Cl])[O]1` [Ru-Gly, [(p-cymene)Ru(Gly)Cl]], the IC50 is above 200 µM in data set [1], above 200 µM in data set [2], 112 ± 4 µM in data set [3] and above 200 µM in data set [4]. Moreover, the “Progression to G2/M” value in data set [5] was “little progression to G2/M”.
`Cc1ccc(C(C)C)cc1.O=C1C[NH][Os]([Cl])[O]1` [Os-Gly, [(p-cymene)Os(Gly)Cl]]: the IC50 in data set [1] is above 200 µM; in data set [2], above 200 µM; in data set [3], 107 ± 2 µM; in data set [4], above 200 µM. The “Progression to G2/M” value in data set [5] is reported as “little progression to G2/M”. For the same molecule, the “Comet tails vs untreated cells” value in data set [8] is reported as “statistically significantly shorter comet tails”.
